From ChEMBL document CHEMBL4811227, “Biosynthesis of Nonimmunosuppressive ProlylFK506 Analogues with Neurite Outgrowth and Synaptogenic Activity” (J Nat Prod, 2021)
Calls of active or inactive are those of the source. The calls are words filed in the database; no cut-off is given here.

Key:
CD4+ve Th [1] = assay: Immunosuppressive activity in C57BL/6J mouse CD4+ve T cells assessed as inhibition of CD3/CD28-stimulated CD4+ve T cell proliferation incubated for 72 hrs by CellTrace-violet staining based flow cytometry analysis; type: functional
CD4+ve Th [2] = assay: Immunosuppressive activity in C57BL/6J mouse CD4+ve T cells assessed as inhibition of CD3/CD28-stimulated CD4+ve T cell proliferation by measuring fold reduction incubated for 72 hrs by CellTrace-violet staining based flow cytometry analysis relative to FK506; type: functional
[3] = tested on: Primary hippocampal neuron; assay: Neurotrophic activity in ICR mouse primary hippocampal neuron assessed as induction of neurite outgrowth at 1 ng/ml measured after 48 hrs by photographic imaging analysis; type: functional, tissue-based
[4] = Neurotrophic activity in ICR mouse primary hippocampal neuron assessed as increase in relative spontaneous excitatory postsynaptic current frequency at -70 mV holding potential at 1 ng/ml incubated for 10 to 14 days in presence of bicuculline methiodide; type: functional; conditions: time 10-14 day

SMILES	IC50 (CD4+ve Th [1]) [µM]	fold change (FC) (CD4+ve Th [2])	Activity [3]	Activity [4]
CCC[C@@H]1/C=C(\C)C[C@H](C)C[C@H](OC)[C@H]2O[C@@](O)(CC(=O)N3CCC[C@H]3C(=O)O[C@H](/C(C)=C/[C@@H]3CC[C@@H](O)[C@H](O)C3)[C@H](C)[C@@H](O)CC1=O)[C@H](C)C[C@@H]2OC	7.27	220000	Active	2.63
C=CC[C@@H]1/C=C(\C)C[C@H](C)C[C@H](OC)[C@H]2O[C@@](O)(C(=O)C(=O)N3CCCC[C@H]3C(=O)O[C@H](/C(C)=C/[C@@H]3CC[C@@H](O)[C@H](OC)C3)[C@H](C)[C@@H](O)CC1=O)[C@H](C)C[C@@H]2OC [TACROLIMUS ANHYDROUS]	3.4e-05			2.61
CCC[C@@H]1/C=C(\C)C[C@H](C)C[C@H](OC)[C@H]2O[C@@](O)(C(=O)C(=O)N3CCC[C@H]3C(=O)O[C@H](/C(C)=C/[C@@H]3CC[C@@H](O)[C@H](OC)C3)[C@H](C)[C@@H](O)CC1=O)[C@H](C)C[C@@H]2OC	3.97	120000	Active	3.29
